“And” between values parts separate entries of the source, which are not always exact repeats. Equal entries are not always repeated. Inconclusive results and toxic doses are left out.

This test relates to L1210 leukemia ip in BDF1 mice, survival T/C. The test can be described thus: NCI In Vivo Anticancer Drug Screen. Data for tumor model L1210 Leukemia (intraperitoneal) in B6D2F1 (BDF1) mice. As to conditions: endpoint: mean survival time, higher = longer survival. An outline of the steps:
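Read-out is survival time, reported as the treated-group measurement over the vehicle-control measurement.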

Where [1] appears, read: dose: 100.0 mg/kg/injection, schedule: Q04DX002 (ip), vehicle: Klucel (hydroxypropylcellulose) (HPC).
[2] abbreviates: dose: 200.0 mg/kg/injection, schedule: Q04DX002 (ip), vehicle: Klucel (hydroxypropylcellulose) (HPC).
[3] abbreviates: dose: 100.0 mg/kg/injection, schedule: Q01DX009 (ip), vehicle: saline with Tween-80.
[4] abbreviates: dose: 200.0 mg/kg/injection, schedule: Q01DX009 (ip), vehicle: saline with Tween-80.
Where [5] appears, read: dose: 400.0 mg/kg/injection, schedule: Q04DX002 (ip), vehicle: Klucel (hydroxypropylcellulose) (HPC).
Setting [6] is: dose: 50.0 mg/kg/injection, schedule: Q01DX009 (ip), vehicle: saline.
Setting [7] is: dose: 100.0 mg/kg/injection, schedule: Q01DX009 (ip), vehicle: saline.
[8] abbreviates: dose: 100.0 mg/kg/injection, schedule: Q04DX002 (ip), vehicle: saline.
[9] abbreviates: dose: 200.0 mg/kg/injection, schedule: Q04DX002 (ip), vehicle: saline.
The mark [10] stands for this setting: dose: 100.0 mg/kg/injection, schedule: Q04DX003 (ip), vehicle: acetone.
[11] abbreviates: dose: 200.0 mg/kg/injection, schedule: Q04DX003 (ip), vehicle: acetone.
Setting [12] is: dose: 400.0 mg/kg/injection, schedule: Q04DX003 (ip), vehicle: acetone.
Setting [13] is: dose: 100.0 mg/kg/injection, schedule: Q01DX001 (ip), vehicle: saline.
[14] abbreviates: dose: 200.0 mg/kg/injection, schedule: Q01DX001 (ip), vehicle: saline.
The mark [15] stands for this setting: dose: 400.0 mg/kg/injection, schedule: Q01DX001 (ip), vehicle: saline.
[16] abbreviates: dose: 100.0 mg/kg/injection, schedule: Q01DX009 (ip), vehicle: Klucel (hydroxypropylcellulose) (HPC).
Where [17] appears, read: dose: 200.0 mg/kg/injection, schedule: Q01DX009 (ip), vehicle: Klucel (hydroxypropylcellulose) (HPC).
Where [18] appears, read: dose: 400.0 mg/kg/injection, schedule: Q01DX009 (ip), vehicle: Klucel (hydroxypropylcellulose) (HPC).
Where [19] appears, read: dose: 50.0 mg/kg/injection, schedule: Q01DX009 (ip), vehicle: saline with Tween-80.
The mark [20] stands for this setting: dose: 100.0 mg/kg/injection, schedule: Q04DX002 (ip), vehicle: saline with Tween-80.
The mark [21] stands for this setting: dose: 200.0 mg/kg/injection, schedule: Q04DX002 (ip), vehicle: saline with Tween-80.
[22] abbreviates: dose: 400.0 mg/kg/injection, schedule: Q04DX002 (ip), vehicle: saline with Tween-80.
Setting [23] is: dose: 100.0 mg/kg/injection, schedule: Q04DX003 (ip), vehicle: Klucel (hydroxypropylcellulose) (HPC).
The mark [24] stands for this setting: dose: 200.0 mg/kg/injection, schedule: Q04DX003 (ip), vehicle: Klucel (hydroxypropylcellulose) (HPC).
Where [25] appears, read: dose: 400.0 mg/kg/injection, schedule: Q04DX003 (ip), vehicle: Klucel (hydroxypropylcellulose) (HPC).

Take `N#Cc1nc(N)c(NC2(O)C(=O)Nc3ccccc32)nc1C#N` (stereo not given): the T/C under setting [1] was 97 % of control and the T/C under setting [2] was 105 % of control.

As for `O=S(=O)(Nc1ccc2c3c(cccc13)CC2)c1ccccc1`, the T/C under setting [3] is 92 % of control; the T/C under setting [4] was 94 % of control; the T/C (dose: 400.0 mg/kg/injection, schedule: Q01DX009 (ip), vehicle: saline with Tween-80) is 103 % of control.

For `CC1CN=C(c2cccc(NC(=O)NCCCCNC(=O)Nc3cccc(C4=NCC(C)N4)c3)c2)N1` (stereo not given), the T/C (dose: 6.5 mg/kg/injection, schedule: Q01DX Z (ip), vehicle: carboxymethylcellulose (CMC)) is 94 % of control.

Regarding `Oc1ccccc1/C=N/Sc1ccccc1.Oc1ccccc1/C=N/Sc1ccccc1.[Ni+2]`, the T/C under setting [1] is 94 % of control, the T/C under setting [2] was 94 % of control and the T/C under setting [5] is 105 % of control.

For the molecule `BrCCOc1ccccc1`, the T/C (dose: 100.0 mg/kg/injection, schedule: Q01DX009 (ip), vehicle: other) is 95 % of control and the T/C (dose: 200.0 mg/kg/injection, schedule: Q01DX009 (ip), vehicle: other) was 101 % of control.

Take `CCCCOCCN`: the T/C is 104 % of control (dose: 12.5 mg/kg/injection, schedule: Q01DX009 (ip), vehicle: saline); 101 % of control (dose: 25.0 mg/kg/injection, schedule: Q01DX009 (ip), vehicle: saline); 106 % of control under setting [6].

As to `CC1CN=C(c2cccc(NC(=O)c3ccc(C(=O)Nc4cccc(C5=NCC(C)N5)c4)c(N)c3)c2)N1` (stereo not given), the T/C is, setting by setting: (dose: 1.25 mg/kg/injection, schedule: Q01DX Z (ip), vehicle: water) 91 % of control; (dose: 2.5 mg/kg/injection, schedule: Q01DX Z (ip), vehicle: water) 89 % of control.

For `C/C(CCc1c[nH]c2ccccc12)=N\O`, the T/C (dose: 100.0 mg/kg/injection, schedule: Q04DX003 (sc), vehicle: olive oil, sesame oil, peanut oil) is 98 % of control; the T/C (dose: 200.0 mg/kg/injection, schedule: Q04DX003 (sc), vehicle: olive oil, sesame oil, peanut oil) is 98 % of control; the T/C (dose: 400.0 mg/kg/injection, schedule: Q04DX003 (sc), vehicle: olive oil, sesame oil, peanut oil) is 104 % of control.

`COc1ccc(NC(=O)N(C)Cc2ccccc2Cl)cc1`: the T/C is 96 % of control under setting [1], 110 % of control under setting [2] and 104 % of control under setting [5].

As to `CC1CCN(C(=O)CC#N)CC1`, the T/C by setting is: under setting [6], 108 % of control; under setting [7], 112 % of control; under setting [8], 102 % of control; under setting [9], 102 % of control.

With `O=C1/C(=C/c2cccc([N+](=O)[O-])c2)CCc2ccccc21`, the T/C is 109 % of control under setting [10], 101 % of control under setting [11] and 96 % of control under setting [12].

As for `Nc1nc2nc(-c3ccc([N+](=O)[O-])cc3)nc(N)c2nc1-c1ccc(N(CCO)CCO)cc1`, the T/C runs as follows: under setting [13], 90 % of control; under setting [14], 95 % of control; under setting [15], 95 % of control.

As to `O/N=C\c1cc2c3c(c1)CCCN3CCC2`, the T/C reads like this: under setting [16], 95 % of control; under setting [17], 91 % of control; under setting [18], 86 % of control.

With `CC(=O)OCCC(OC(C)=O)c1ccccn1` (stereo not given), the T/C by setting is: (dose: 50.0 mg/kg/injection, schedule: Q01DX001 (ip), vehicle: saline) 100 % of control; under setting [13], 103 % of control; under setting [14], 97 % of control; under setting [15], 103 % of control.

`COc1ccccc1C1CCCC2C(Oc3ccc([N+](=O)[O-])cc3)OC12` (stereo not given): the T/C was 87 % of control under setting [19] and 100 % of control under setting [3].

As to `CCOC(=O)OCc1ccccc1`, the T/C reads like this: under setting [20], 94 % of control; under setting [21], 109 % of control; under setting [22], 102 % of control.

Regarding `CC(=O)c1ccc(NC(=O)C(F)(F)F)cc1`, the T/C by setting is: (dose: 50.0 mg/kg/injection, schedule: Q01DX001 (ip), vehicle: carboxymethylcellulose (CMC)) 101 % of control; (dose: 100.0 mg/kg/injection, schedule: Q01DX001 (ip), vehicle: carboxymethylcellulose (CMC)) 95 % of control; (dose: 200.0 mg/kg/injection, schedule: Q01DX001 (ip), vehicle: carboxymethylcellulose (CMC)) 97 % of control; (dose: 400.0 mg/kg/injection, schedule: Q01DX001 (ip), vehicle: carboxymethylcellulose (CMC)) 92 % of control.

On to `CCCCc1ccc(C(=O)c2ccccc2)c2c1C(=O)c1ccccc1C2=O`, for which the T/C by setting is: under setting [16], 97 % of control; under setting [23], 92 % of control; under setting [17], 94 % of control; under setting [24], 92 % of control; under setting [18], 95 % of control; under setting [25], 96 % of control.

As for `O=C(NCN1CCOCC1)Nc1ccc(Cl)cc1`, the T/C by setting is: (dose: 25.0 mg/kg/injection, schedule: Q01DX009 (ip), vehicle: gum acacia) 100 % of control; (dose: 50.0 mg/kg/injection, schedule: Q01DX009 (ip), vehicle: gum acacia) 91 % of control.

For `BrCC(Br)c1ccccc1` (stereo not given), the T/C is, setting by setting: under setting [23], 91 % of control; under setting [24], 91 % of control; under setting [25], 98 % of control.

On to `O=C(O)c1cc(C(=O)Nc2ccc(C3=NCCN3)cc2)c(C(=O)O)cc1C(=O)Nc1ccc(C2=NCCN2)cc1`, for which the T/C is, setting by setting: (dose: 15.0 mg/kg/injection, schedule: Q01DX Z (ip), vehicle: carboxymethylcellulose (CMC)) 95 % of control; (dose: 30.0 mg/kg/injection, schedule: Q01DX Z (ip), vehicle: carboxymethylcellulose (CMC)) 98 % of control; (dose: 60.0 mg/kg/injection, schedule: Q01DX Z (ip), vehicle: carboxymethylcellulose (CMC)) 101 % of control; (dose: 120.0 mg/kg/injection, schedule: Q01DX Z (ip), vehicle: carboxymethylcellulose (CMC)) 95 % of control.

For the molecule `CCOC(=O)Nc1ccc(NC(C)=O)cc1`, the T/C under setting [16] was 104 % of control, the T/C under setting [17] was 98 % of control and the T/C under setting [18] is 93 % of control.

In the case of `CCCCCCCCCCOP(=S)(N1CC1)N1CC1`, the T/C (dose: 2.5 mg/kg/injection, schedule: Q01DX Z (ip), vehicle: carboxymethylcellulose (CMC)) was 107 % of control; the T/C (dose: 5.0 mg/kg/injection, schedule: Q01DX Z (ip), vehicle: carboxymethylcellulose (CMC)) is 118 % of control; the T/C (dose: 20.0 mg/kg/injection, schedule: Q01DX Z (ip), vehicle: carboxymethylcellulose (CMC)) is 232 % of control and 260 % of control; the T/C (dose: 40.0 mg/kg/injection, schedule: Q01DX Z (ip), vehicle: carboxymethylcellulose (CMC)) is 150 % of control.

As for `CN(C)CCN(C)C(=O)C(O)(c1ccccc1)c1ccccc1`, the T/C was 97 % of control under setting [20], 97 % of control under setting [21] and 97 % of control under setting [22].

Turning to `S=C(NC1CC2C=CC1C2)N1CCCCC1` (stereo not given), the T/C runs as follows: under setting [19], 106 % of control; under setting [3], 100 % of control; under setting [4], 95 % of control.

Consider `CCOC(=O)CCSc1ccc(NC)cc1`, for which the T/C was 94 % of control under setting [7]; 102 % of control under setting [10]; 96 % of control (dose: 200.0 mg/kg/injection, schedule: Q01DX009 (ip), vehicle: saline); 102 % of control under setting [11]; 97 % of control (dose: 400.0 mg/kg/injection, schedule: Q01DX009 (ip), vehicle: saline); 105 % of control under setting [12].

Take `CC(=O)OCC1OC2OC(C)(C)OC2C1NC(=O)N(C)C(C)=O` (stereo not given): the T/C reads like this: under setting [8], 87 % of control; under setting [9], 103 % of control; (dose: 400.0 mg/kg/injection, schedule: Q04DX002 (ip), vehicle: saline) 90 % of control.
